This passage reports ED50 and Ki results from patent US5100909A, “Acetylenic imidazoles having central nervous system activity” (The Upjohn Company, priority 1991, dated 1992).

Assay [1] concerns oxotremorine-induced body tremor in mice. Briefly: Oxotremorine antagonist assay (body tremor) in mice. The format is in vivo. Conditions: Mus musculus, ip, read-out: Oxot. Antagonist Tremor (ED50). The protocol:
Oxotremorine antagonist assays were performed on groups of six mice weighing 18-22 g. Each was dosed intraperitoneally with the test compound prepared in 0.25% methylcellulose and were placed in individual cages. Twenty minutes later the mice were injected subcutaneously with 0.5 mg/kg of oxotremorine dissolved in saline. Ten minutes later the mice were scored for body tremor. Doses of the compound under study began at 100 mg/kg and were decreased at a 0.5 log interval until no responders were obtained.

The target of assay [2] is CNS cholinergic receptor. The assay is described as follows: Cholinergic receptor binding assay, tritiated oxotremorine M ligand. Particulars: read-out: CNS Cholinergic Receptor Binding Assays Ki (nM) Oxotremorine.
The target of assay [3] is CNS cholinergic receptor. The format is binding. Conditions: tritiated quinuclidine benzylate; read-out: CNS Cholinergic Receptor Binding Assays Ki (nM) QNB.
[4] abbreviates: i.p. test compound, 20 min before oxotremorine 0.5 mg/kg s.c., mice.

Read-outs that look alike come from different tables or passages of the source. Some results are limits rather than exact numbers.

By ED50 is commonly meant the dose at which the effect has come halfway, by size or by number of responders. One may read the Ki as the equilibrium dissociation constant of an inhibitor or competing ligand from its target.

For `O=C1CCCN1CC#CCn1ccnc1Cl` [Compound 8, 1-[4-(2-Chloro-1H-imidazol-1-yl)-2-butynyl]-2-pyrrolidinone], in assay [1] (setting [4]), the ED50 was above 100 mg/kg. Further, the Ki on CNS cholinergic receptor [2] came out at 577 nM.

Regarding `Cc1cn(CC#CCN2CCCC2=O)cn1` [Compound 9, 1-[4-(4-Methyl-1H-imidazol-1-yl)-2-butynyl]-2-pyrrolidinone], in assay [1] (setting [4]), the median effective dose (ED50) is above 100 mg/kg. In addition, the Ki at CNS cholinergic receptor [2] was found to be 10.3 nM; at CNS cholinergic receptor [3] it was 377 nM.

Take `O=C1CCC(=O)N1CC#CCn1ccnc1` [Compound 10, 1-[4-(1H-Imidazol-1-yl)-2-butynyl]-2,5-pyrrolidinedione]: the ED50 in assay [1] was determined as 25 mg/kg. In addition, the values for the inhibition constant Ki on CNS cholinergic receptor [2] and on CNS cholinergic receptor [3] were 23.5 nM and 634 nM, respectively.

In the case of `Cc1cncn1CC#CCN1C(=O)CCC1=O` [Compound 11, 1-[4-(5-Methyl-1H-imidazol-1-yl)-2-butynyl]-2,5-pyrrolidinedione], in assay [1], the median effective dose (ED50) was found to be 37 mg/kg. The results for the Ki at CNS cholinergic receptor [2] and at CNS cholinergic receptor [3] were 10.3 nM and 100 nM, respectively.

`Br.Cc1cncn1CC#CC(C)N1CCCC1=O` (stereo not shown) [Compound 12, 1-[4-(5-Methyl-1H-imidazol-1-yl)-1-methyl-2-butynyl]-2-pyrrolidinone hydrobromide]: in assay [1] (setting [4]), the ED50 was determined as 25 mg/kg. The inhibition constant Ki on CNS cholinergic receptor [2] is 5.2 nM; at CNS cholinergic receptor [3] it was 16.8 nM.

In the case of `Cc1cncn1CC#CCN1C(=O)CCC1C` (stereo not shown) [Compound 13], in assay [1] (setting [4]), the ED50 came to 14 mg/kg. Also, the inhibition constant Ki came out at 1.7 nM on CNS cholinergic receptor [2] and 11.6 nM on CNS cholinergic receptor [3].

As for `CC(=O)N(C)C(C)C#CCn1c(C)cnc1C` (stereo not shown) [Compound 18, N-[4-(2,5-Dimethyl-1H-imidazol-1-yl)-1-methyl-2butynyl]-N-methylacetamide], the ED50 in assay [1] (setting [4]) was determined as 14.2 mg/kg. Besides, the Ki at CNS cholinergic receptor [2] turned out to be 6.3 nM; on CNS cholinergic receptor [3], 8.5 nM.

For `CC(=O)N(C)CC#CCn1ccnc1` [Compound 19, N-[4-(1H-Imidazol-1-yl)-2-butynyl]-N-methylacetamide], the ED50 in assay [1] (setting [4]) is above 100 mg/kg. At CNS cholinergic receptor [2], the inhibition constant (Ki) stood at 1.9 nM.

In the case of `CC(=O)N(C)CC#CCn1cncc1C` [Compound 20, N-[4-(5-Methyl-1H-imidazol-1-yl)-2-butynyl]-N-methylacetamide], the 50% effective dose (ED50) in assay [1] (setting [4]) is above 100 mg/kg. Besides, the values for the Ki on CNS cholinergic receptor [2] and at CNS cholinergic receptor [3] were 3.6 nM and 172 nM, respectively.

For `CC(=O)N(C)C(C)C#CCn1cncc1C` (stereo not shown) [Compound 21, N-[4(5-Methyl-1H-imidazol-1-yl)-1-methyl-2-butynyl]-N-methylacetamide], the ED50 in assay [1] (setting [4]) worked out at 80 mg/kg. The results for the Ki at CNS cholinergic receptor [2] and at CNS cholinergic receptor [3] were 10 nM and 184 nM, respectively.

In the case of `CC(=O)NCC#CCn1ccnc1` [Compound 22, N-[4-(1H-Imidazol-1-yl)-2-butynyl]acetamide], in assay [1] (setting [4]), the 50% effective dose (ED50) is above 100 mg/kg. At CNS cholinergic receptor [2], the Ki came to 187 nM.

In the case of `CC(=O)NCC#CCn1cncc1C` [Compound 23, N-[4-(5-Methyl-1H-imidazol-1-yl)-2-butynyl]acetamide], the ED50 in assay [1] (setting [4]) was above 100 mg/kg. On CNS cholinergic receptor [2], the Ki was 213 nM.

For `Cc1cncn1CC#CCN(C)C(=O)N(C)C` [Compound 25, [4-(5-Methyl-1H-imidazol-1-yl)-2-butynyl]trimethyl urea], the ED50 in assay [1] (setting [4]) was above 100 mg/kg. For the same compound, on CNS cholinergic receptor [2], the inhibitory constant (Ki) was 82.1 nM.

As to `COC(=O)N(C)CC#CCn1ccnc1` [Compound 26, Methyl [4-(1H-imidazol-1-yl)-2-butynyl]methylcarbamate], the ED50 in assay [1] (setting [4]) is above 100 mg/kg. Further, the Ki on CNS cholinergic receptor [2] was determined as 120 nM.

Turning to `COC(=O)N(C)CC#CCn1cncc1C` [Compound 27, Methyl [4-(5-methyl-1H-imidazol-1-yl)-2-butynyl]methyl carbamate], in assay [1] (setting [4]), the ED50 was above 100 mg/kg. For the same compound, at CNS cholinergic receptor [2], the Ki worked out at 200 nM.

Consider `Cc1cncn1CC#CCN1CCCC1` [Compound 32, 5-Methyl-1[(4-pyrrolidinyl)-2-butynyl]-1H-imidazole], for which the 50% effective dose (ED50) in assay [1] is above 100 mg/kg. Moreover, the Ki on CNS cholinergic receptor [2] came to 436 nM.

`C(#CCN1CCCC1)CN1CCCC1` [Tremorine, reference compound]: the median effective dose (ED50) in assay [1] was above 100 mg/kg. The inhibitory constant (Ki) was 370 nM on CNS cholinergic receptor [2] and 4600 nM on CNS cholinergic receptor [3].
